The values below come from patent publication US7803801B2, “Aminopyridine compounds having Syk inhibitory activity” (Japan Tobacco, Inc., priority 2005, dated 2010).

In experiment [1] the target is GST-Syk Full Protein (human) (Homo sapiens, UniProt P43405). Put plainly: Syk kinase inhibition test (HTRF method). The settings on record: HTRF, 100 μM ATP, 30 min room temperature, average; read-out: sykHTRF ave IC50. It counts as biochemical. In short, it runs like this:
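HTRF read-out: after EDTA termination and 1 h with XL665-streptavidin and Eu-anti-phosphotyrosine, the 665/620 nm ratio was measured. The reaction ran 30 min at 20–25 °C with final 6.4 nM human GST-Syk, 250 nM biotinylated peptide, 100 μM ATP, pH 7.0 HEPES buffer, 2% DMSO.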
For orientation: In TR-FRET formats the signal depends on donor and acceptor labels being close together.

Experiment [2] concerns cultured human mast cells. In words: Degranulation inhibition test using cultured human mast cells (IgE cross-linking, β-Hexosaminidase release). It counts as cell-based. The settings on record: read-out: human degranulation ave. IC50. In short, it runs like this:
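Degranulation was triggered by anti-hIgE (10 μg/mL final, 30 min, 37 °C) after a 10-min compound pretreatment (DMSO 0.1%) of cord-blood CD34+-derived mast cells primed 5 days with IL-4 and IgE. β-Hexosaminidase in supernatant was measured with p-nitrophenyl-GlcNAc substrate (A405), expressed against water-lysed total; IC50 (M).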

[3] abbreviates: Mast cell, cultured human mast cells, anti-hIgE stimulation, β-Hexosaminidase index, average.

Read-outs that look alike come from different tables or passages of the source. Bounds are passed on as bounds.

The term IC50 denotes the midpoint of a concentration-inhibition curve.

Consider `CC(=O)N[C@@H](C)c1ncc(-c2cccc(Nc3cc(CC(=O)O)ccn3)n2)s1` [Compound A-331], for which the concentration for half-maximal inhibition (IC50) in experiment [1] and in experiment [2] (setting [3]) was greater than 1000 nM throughout.
With `CCOC(=O)Cc1ccnc(Nc2cccc(-c3cnc([C@@H]4CCC(=O)N4)s3)n2)c1` [Compound A-332], the IC50 in experiment [1] and in experiment [2] (setting [3]) was 100 to 1000 nM each time.
With `Cc1ccnc(Nc2cccc(-c3cnc(CC(C)(C)N)s3)n2)c1` [Compound A-333], the half-maximal inhibitory concentration (IC50) in experiment [1] and in experiment [2] (setting [3]) was 100 to 1000 nM each time.
On to `CC(=O)NC(C)(C)Cc1ncc(-c2cccc(Nc3cc(C)ccn3)n2)s1` [Compound A-334, N-(1,1-dimethyl-2-{5-[6-(4-methylpyridin-2-ylamino)pyridin-2-yl]thiazol-2-yl}ethyl)acetamide], for which the concentration for half-maximal inhibition (IC50) in experiment [1] and in experiment [2] (setting [3]) was less than 100 nM in each case.
Consider `C[C@H](O)c1ncc(-c2cccc(Nc3cc(C4(C)OCCO4)ccn3)n2)s1` [Compound A-335, (S)-1-(5-{6-[4-(2-methyl-[1,3]dioxolan-2-yl)pyridin-2-ylamino]pyridin-2-yl}thiazol-2-yl)ethanol], for which the IC50 in experiment [1] is less than 100 nM; in experiment [2] (setting [3]) it was 100 to 1000 nM.
On to `CNC(=O)[C@H]1CC[C@H](c2ncc(-c3cccc(Nc4cc(C)ccn4)n3)s2)CC1` [Compound A-336, N-methyl-trans-4-{5-[6-(4-methylpyridin-2-ylamino)pyridin-2-yl]thiazol-2-yl}cyclohexanecarboxamide], for which the IC50 was less than 100 nM in experiment [1] and 100 to 1000 nM in experiment [2] (setting [3]).
Take `Cc1ccnc(Nc2cccc(-c3cnc(CC(C)(C)NS(C)(=O)=O)s3)n2)c1` [Compound A-337, N-(1,1-dimethyl-2-{5-[6-(4-methylpyridin-2-ylamino)pyridin-2-yl]-thiazol-2-yl}ethyl)methanesulfonamide]: the 50% inhibitory concentration (IC50) in experiment [1] and in experiment [2] (setting [3]) was less than 100 nM each time.
For `NC(=O)[C@H]1CC[C@H](c2ncc(-c3cccc(Nc4cc(Cl)ccn4)n3)s2)CC1` [Compound A-338, trans-4-{5-[6-(4-chloropyridin-2-ylamino)pyridin-2-yl]thiazol-2-yl}cyclohexanecarboxamide], the IC50 in experiment [1] and in experiment [2] (setting [3]) was less than 100 nM throughout.
In the case of `COc1ccnc(Nc2cccc(-c3cnc([C@H]4CC[C@H](C(N)=O)CC4)s3)n2)c1` [Compound A-339, trans-4-{5-[6-(4-methoxypyridin-2-ylamino)pyridin-2-yl]thiazol-2-yl}cyclohexanecarboxamide], the IC50 in experiment [1] and in experiment [2] (setting [3]) was less than 100 nM each time.
As to `O=C(O)Cc1ccnc(Nc2cccc(-c3cnc([C@@H]4CCC(=O)N4)s3)n2)c1` [Compound A-340], the 50% inhibitory concentration (IC50) in experiment [1] and in experiment [2] (setting [3]) was 100 to 1000 nM throughout.
As to `Cc1ccnc(Nc2cccc(-c3cnc(CC4CCC(O)CC4)s3)n2)c1` (stereo not drawn) [Compound A-341, 4-{5-[6-(4-methylpyridin-2-ylamino)pyridin-2-yl]thiazol-2-ylmethyl}cyclohexanol], the IC50 in experiment [1] was less than 100 nM; in experiment [2] (setting [3]), 100 to 1000 nM.
As to `CNC(=O)Cc1ccnc(Nc2cccc(-c3cnc([C@@H]4CCC(=O)N4)s3)n2)c1` [Compound A-342], the half-maximal inhibitory concentration (IC50) in experiment [1] and in experiment [2] (setting [3]) was greater than 1000 nM in each case.
On to `O=C1CC[C@@H](c2ncc(-c3cccc(Nc4cc(OCCO)ccn4)n3)s2)N1` [Compound A-343], for which the half-inhibitory concentration (IC50) in experiment [1] and in experiment [2] (setting [3]) was 100 to 1000 nM throughout.
In the case of `C[C@H](O)c1ncc(-c2cccc(Nc3cc(OCCO)ccn3)n2)s1` [Compound A-344, (S)-1-(5-{6-[4-(2-hydroxyethoxy)pyridin-2-ylamino]pyridin-2-yl}thiazol-2-yl)ethanol], the IC50 in experiment [1] and in experiment [2] (setting [3]) was less than 100 nM each time.
Regarding `Cc1ccnc(Nc2cccc(-c3cnc([C@H](C)OC(=O)N(C)C)s3)n2)c1` [Compound A-345, dimethylcarbamic acid(S)-1-{5-[6-(4-methylpyridin-2-ylamino)pyridin-2-yl]thiazol-2-yl}ethyl ester], the 50% inhibitory concentration (IC50) in experiment [1] is less than 100 nM; in experiment [2] (setting [3]) it was 100 to 1000 nM.
Take `Cc1ccnc(Nc2cccc(-c3cnc(COC(=O)N4CCOCC4)s3)n2)c1` [Compound A-346]: the half-inhibitory concentration (IC50) in experiment [1] and in experiment [2] (setting [3]) was 100 to 1000 nM each time.
Regarding `Cc1ccnc(Nc2cccc(-c3cnc([C@H](C)NC(=O)c4ccc(O)cc4)s3)n2)c1` [Compound A-347], the IC50 in experiment [1] and in experiment [2] (setting [3]) was 100 to 1000 nM in each case.
Regarding `Cc1ccnc(Nc2cccc(-c3cnc([C@H](C)NC(=O)c4ccccc4)s3)n2)c1` [Compound A-348], the half-maximal inhibitory concentration (IC50) in experiment [1] is 100 to 1000 nM; in experiment [2] (setting [3]), greater than 1000 nM.
Turning to `Cc1ccnc(Nc2cccc(-c3cnc([C@H](C)NC(=O)C4CCC(O)CC4)s3)n2)c1` (stereo partly drawn) [Compound A-349], the IC50 in experiment [1] was 100 to 1000 nM; in experiment [2] (setting [3]), greater than 1000 nM.
The corresponding values for `Cc1ccnc(Nc2cccc(-c3cnc(CN4C(=O)CCCC4=O)s3)n2)c1` [Compound A-350] are 100 to 1000 nM and 100 to 1000 nM.
Take `Cc1ccnc(Nc2cccc(-c3cnc(CN4CCNC(=O)C4)s3)n2)c1` [Compound A-351, potassium carbonate 4-{5-[6-(4-methylpyridin-2-ylamino)pyridin-2-yl]thiazol-2-ylmethyl}piperazin-2-one]: the IC50 in experiment [1] is less than 100 nM; in experiment [2], 100 to 1000 nM.
As to `Cc1ccnc(Nc2cccc(-c3cnc([C@H](C)NC(=O)Cc4ccc(O)cc4)s3)n2)c1` [Compound A-352], the IC50 in experiment [1] and in experiment [2] (setting [3]) was 100 to 1000 nM throughout.
On to `Cc1ccnc(Nc2cccc(-c3cnc(C4CCN(S(C)(=O)=O)CC4)s3)n2)c1` [Compound A-353], for which the IC50 in experiment [1] and in experiment [2] (setting [3]) was 100 to 1000 nM in each case.
On to `Cc1ccnc(Nc2cccc(-c3cnc(COCC(N)=O)s3)n2)c1` [Compound A-354], for which the 50% inhibitory concentration (IC50) in experiment [1] and in experiment [2] (setting [3]) was 100 to 1000 nM each time.
On to `CC(=O)NCC(=O)N[C@@H](C)c1ncc(-c2cccc(Nc3cc(C)ccn3)n2)s1` [Compound A-355], for which the IC50 in experiment [1] is 100 to 1000 nM; in experiment [2] (setting [3]), greater than 1000 nM.
On to `COC(=O)N(C)Cc1ncc(-c2cccc(Nc3cc(C)ccn3)n2)s1` [Compound A-356], for which the 50% inhibitory concentration (IC50) in experiment [1] and in experiment [2] (setting [3]) was 100 to 1000 nM each time.
As to `Cc1ccnc(Nc2cccc(-c3cnc(CN(C)C(=O)N(C)C)s3)n2)c1` [Compound A-357], the 50% inhibitory concentration (IC50) in experiment [1] is 100 to 1000 nM; in experiment [2] (setting [3]) it was greater than 1000 nM.
Consider `Cc1ccnc(Nc2cccc(-c3cnc(CN(C)C(=O)C4CC4)s3)n2)c1` [Compound A-358], for which the IC50 in experiment [1] and in experiment [2] (setting [3]) was 100 to 1000 nM each time.
Consider `CNC(=O)N1CCC(c2ncc(-c3cccc(Nc4cc(C)ccn4)n3)s2)CC1` [Compound A-359], for which the IC50 in experiment [1] and in experiment [2] (setting [3]) was 100 to 1000 nM throughout.
For the molecule `CC(=O)Oc1ccc(CC(OC(C)=O)c2ncc(-c3cccc(Nc4cc(C)ccn4)n3)s2)cc1` (stereo not drawn) [Compound A-360], the half-maximal inhibitory concentration (IC50) in experiment [1] and in experiment [2] (setting [3]) was greater than 1000 nM each time.
Turning to `COC(=O)COCc1ncc(-c2cccc(Nc3cc(C)ccn3)n2)s1` [Compound A-361], the IC50 in experiment [1] and in experiment [2] (setting [3]) was 100 to 1000 nM each time.
Turning to `Cc1ccnc(Nc2cccc(-c3cnc(C(O)Cc4ccc(O)cc4)s3)n2)c1` (stereo not drawn) [Compound A-362, 4-(2-hydroxy-2-{5-[6-(4-methylpyridin-2-ylamino)pyridin-2-yl]thiazol-2-yl}ethyl)phenol], the IC50 is less than 100 nM in experiment [1] and 100 to 1000 nM in experiment [2] (setting [3]).
The corresponding values for `Cc1ccnc(Nc2cccc(-c3cnc([C@@H]4CCCC(=O)N4)s3)n2)c1` [Compound A-363] are 100 to 1000 nM and 100 to 1000 nM.
